{
  "source": "patent US20240316073A1",
  "about": "“CANNABIDIOLIC ACID ESTERS FOR TREATING PRADER-WILLI SYNDROME” (EPM (IP), Inc., priority 2021, published 2024)",
  "key": {"[1]": {"tested_on": "Magel2^null mice", "experiment": "PWS preventive model: Magel2-null mice on standard diet treated for 18 weeks", "assay_type": "in vivo", "conditions": "STD diet, 20 mg/kg/day IP", "description": "The aim of the second study was to evaluate whether EPM301 treatment has an impact on body weight gain and adiposity in a mouse model of PWS.\nMale 6-week-old Magel2^null mice and their wild-type littermate controls were maintained under a 12-h light/dark cycle and fed ad libitum a standard laboratory diet (STD, 14% fat, 24% protein, 62% carbohydrates; NIH-31 rodent diet).\nMagel2^null mice were either treated with EPM301 20 mg/kg/day or with vehicle (1% Tween80, 4% DMSO, 95% Saline). WT siblings were treated with vehicle. All treatments were given for 18 weeks by intraperitoneal (IP) injections."}, "[2]": {"tested_on": "DIO mice", "experiment": "Serum biochemistry and hepatic lipid content in HFD-fed obese mice, genotype not distinguished (WT or PWS model)", "assay_type": "in vivo", "description": "(§1) The experimental protocol used was approved by the Institutional Animal Care and Use Committee of the Hebrew University, Israel, which is an AAALAC International accredited institute. Male 6-week-old Magel2^null mice and their wild-type littermate controls were maintained under a 12-h light/dark cycle and fed ad libitum. To generate diet-induced obesity, the mice were fed either a high-fat diet (HFD) (60% of calories from fat, 20% from protein, and 20% from carbohydrates; Research Diet, D12492) or a standard laboratory diet (STD, 14% fat, 24% protein, 62% carbohydrates; NIH-31 rodent diet) for 14-16 weeks. Then, HFD-fed obese mice received vehicle (1% Tween80, 4% DMSO, 95% Saline) or CBDA-ME (20 or 40 mg/kg) daily for 28 days by intraperitoneal (ip) injections. Age-matched control mice on STD received vehicle daily.\nBlood biochemistry—Serum levels of cholesterol, triglycerides (TG), high-density lipoprotein (HDL), low-density lipoprotein (LDL), glucose, alanine aminotransferase (ALT), aspartate aminotransferase (AST), and alkaline phosphatase (ALP) were determined using the Cobas C-111 chemistry analyzer (Roche, Switzerland). Fasting blood glucose was measured using the Contour glucometer.\nHepatic lipid content—Liver tissues were extracted and their triglyceride and cholesterol contents were determined using the Cobas C-111 chemistry analyzer (Roche, Switzerland) or the EnzyChrom™ Triglyceride assay kit (BioAssay Systems, Hayward CA, USA).\nHistopathology—First, 5 μm paraffin-embedded liver sections from 5 animals per group were stained with hematoxylin-eosin staining. Liver images were captured with a Zeiss AxioCam ICc5 color camera (Carl Zeiss AG, Jena, Germany) mounted on a Zeiss Axio Scope.A1 light microscope (Carl Zeiss AG, Jena, Germany) and taken from 10 random 40× fields of each animal.\n(§2) Statistical Methods—Results in multiple groups and time-dependent variables were compared by ANOVA followed by Tukey post-hoc test. Significance was set at P<0.05 using the following signs: *P<0.05 relative to STD-Veh; #P<0.05 relative to HFD-Veh; ^P<0.05 relative to HFD-20 mg/kg of CBDA-ME."}, "[3]": {"tested_on": "WT mice", "experiment": "Wild-type littermate controls with HFD diet-induced obesity, CBDA-ME treatment", "assay_type": "in vivo", "description": "as §1\n(§3) Body weight was monitored daily. Total body fat and lean masses were determined by EchoMRI-100H™ (Echo Medical Systems LLC, Houston, TX, USA). At weeks 20-22, the mice were euthanized by a cervical dislocation under deep anesthesia. The brain, kidneys, liver, fat pads, pancreas and muscles were removed, and the liver and kidney were also weighed. The samples were either snap-frozen or fixed in buffered 4% formalin. Trunk blood was collected for determining the biochemical parameters.\n(§4) Multi-parameter metabolic assessment—Metabolic profile of the mice was assessed by using the Promethion High-Definition Behavioral Phenotyping System (Sable Instruments, Inc., Las Vegas, NV, USA). Data acquisition and instrument control were performed using MetaScreen software version 2.2.18.0, and the obtained raw data were processed using ExpeData version 1.8.4 using an analysis script detailing all aspects of data transformation. Mice with free access to food and water (which were continuously measured) were subjected to a standard 12 h light/12 h dark cycle, which consisted of a 24 h acclimation period followed by 24 h of sampling. Respiratory gases were measured by using the GA-3 gas analyzer (Sable Systems, Inc., Las Vegas, NV, USA) using a pull-mode, negative-pressure system. Air flow was measured and controlled by FR-8 (Sable Systems, Inc., Las Vegas, NV, USA), with a set flow rate of 2000 mL/min. Water vapor was continuously measured and its dilution effect on O2 and CO2 was mathematically compensated. Effective body mass was calculated by ANCOVA. Fat oxidation (FO) and carbohydrate oxidation (CHO) were calculated as FO=1.69×VO2−1.69×VCO2 and CHO=4.57×VCO2−3.23×VO2 and expressed as g/d/kg^eff.Mass. […]\nGlucose tolerance test (ipGTT) and insulin tolerance test (ipITT)-Mice that fasted overnight were injected with glucose (1.5 g/kg, ip), followed by a tail blood collection at 0, 15, 30, 45, 60, 90, and 120 minutes. Blood glucose levels were determined using the Contour glucometer (Bayer, Pittsburgh, PA). The following day, mice underwent fasting for 6 h before receiving insulin (0.75 U/kg, ip; Eli Lilly), and blood glucose levels were determined at the same intervals as above. […]\nas §2\n(§5) The metabolic profile of CBDA-ME was examined in mice with diet-and genetic-induced obesity (DIO, GIO). Male Magel2^null mice and their wild-type littermate controls fed a high-fat diet (HFD) for 14-16 weeks became obese and then started treatment with daily ip injections of vehicle, or CBDA-ME (20 mg/kg/d or 40 mg/kg/d) for 28 days. Age-and sex-matched mice on STD served as controls."}, "[4]": {"tested_on": "rat models", "conditions": "oral ingestion, 1 mg/kg, two rat models; cited from earlier work"}, "[5]": {"tested_on": "rats", "conditions": "compared with CBDA, 5-HT1A receptor-dependent; cited from earlier work"}, "[6]": {"tested_on": "rats", "conditions": "compared with CBDA, 5-HT1A receptor-dependent; cited from earlier work", "remark": "listed apart in the source"}, "[7]": {"tested_on": "Magel2^null mice", "experiment": "Magel2-null mouse model of Prader-Willi Syndrome, HFD-induced obesity, CBDA-ME treatment", "assay_type": "in vivo", "description": "A Magel2-null mice model of Prader-Willi Syndrome was used to examine the effects of CBDA-ME treatment.\nas §1, §3, §4, §2, §5"}, "[8]": {"conditions": "cited from earlier work"}, "[9]": {"conditions": "20 or 40 mg/kg ip, 28 days, more prominent at the higher dose"}, "[10]": {"conditions": "HFD-fed obese, 20 or 40 mg/kg/d ip, 28 days"}},
  "note": "Entries after “also recorded” stand apart in the source; their conditions may differ.",
  "data": [
    {"molecule": "C=C(C)C1CCC(C)=C[C@H]1c1c(O)cc(CCCCC)c(C(=O)OC)c1O", "note": "(some centres unmarked) [CBDA-ME, cannabidiolic acid methyl ester]", "values": [
      {"measurement": "change in the body weight versus WT controls and vehicle-treated Magel2^null mice", "setting": "[1]", "value": "significantly lower"},
      {"measurement": "fat mass versus WT control mice", "setting": "[1]", "value": "similar"},
      {"measurement": "lean mass versus WT control mice", "setting": "[1]", "value": "similar"},
      {"measurement": "fat mass versus vehicle-treated Magel2^null mice", "setting": "[1]; listed as EPM301, 20 mg/kg/day", "value": "lower fat mass; also recorded: prevented"},
      {"measurement": "lean mass versus vehicle-treated Magel2^null mice", "setting": "[1]; listed as EPM301, 20 mg/kg/day", "value": "significantly higher; also recorded: increased lean mass"},
      {"measurement": "weight gain versus vehicle-treated Magel2^null mice", "setting": "[1]; listed as EPM301, 20 mg/kg/day", "value": "lower; also recorded: prevented weight gain"},
      {"measurement": "obesity related hepatocellular injury: serum ALT", "setting": "[2]; 40 mg/kg", "value": "reduction"},
      {"measurement": "obesity related hepatocellular injury: serum AST", "setting": "[2]; 40 mg/kg", "value": "reduction"},
      {"measurement": "serum HDL", "setting": "[2]; 20 or 40 mg/kg ip, 28 days", "value": "no effect"},
      {"measurement": "HFD-induced hypercholesterolemia (serum cholesterol)", "setting": "[2]; [9]", "value": "reduced"},
      {"measurement": "ratio between HDL-to-LDL", "setting": "[2]; [9]", "value": "increased"},
      {"measurement": "serum LDL", "setting": "[2]; [9]", "value": "reduced"},
      {"measurement": "ALP levels", "setting": "[2]; HFD", "value": "No major changes"},
      {"measurement": "HFD-induced hepatic steatosis (hepatic triglyceride and cholesterol levels, fat vacuoles in the liver)", "setting": "[2]; HFD", "value": "attenuated"},
      {"measurement": "food intake and hyperphagia", "setting": "[3]; HFD", "value": "not observed"},
      {"measurement": "reduced ambulatory activity", "setting": "[3]; HFD", "value": "restored"},
      {"measurement": "increased adiposity", "setting": "[3]; [10]", "value": "only observed in the higher dose of 40 mg/kg"},
      {"measurement": "overweight (body weight)", "setting": "[3]; [10]", "value": "only observed in the higher dose of 40 mg/kg; also recorded: only the higher dose was found effective"},
      {"measurement": "insulin sensitivity (ipITT)", "setting": "[3]; HFD, 40 mg/kg", "value": "slightly improved"},
      {"measurement": "obesity-induced glucose intolerance (ipGTT)", "setting": "[3]; HFD, 40 mg/kg", "value": "this effect was observed"},
      {"measurement": "lean body mass percentage", "setting": "[3]; HFD, 40 mg/kg ip, 28 days", "value": "significant increase"},
      {"measurement": "fasting blood glucose levels", "setting": "[3]; HFD, chronic treatment", "value": "only in Magel2^null mice"},
      {"measurement": "carbohydrate oxidation", "setting": "[3]; HFD, indirect calorimetry", "value": "upregulated"},
      {"measurement": "utilization of fat (fat oxidation)", "setting": "[3]; HFD, indirect calorimetry", "value": "downregulated"},
      {"measurement": "parameters measured overall", "setting": "[3]; WT DIO mice, 40 mg/kg", "value": "improvements in almost all parameters measured"},
      {"measurement": "anti-depressant effect", "setting": "[4]", "value": "potent anti-depressant effect"},
      {"measurement": "suppressing signs of stress-induced anxiety", "setting": "[5]", "value": "greater potency than CBDA"},
      {"measurement": "suppressing signs of acute and anticipatory nausea", "setting": "[6]", "value": "greater potency than CBDA"},
      {"measurement": "food intake and hyperphagia", "setting": "[7]; HFD", "value": "inhibit; also recorded: significantly reduced"},
      {"measurement": "reduced ambulatory activity", "setting": "[7]; HFD", "value": "restored"},
      {"measurement": "increased adiposity", "setting": "[7]; [10]", "value": "reduced by CBDA-ME in both doses"},
      {"measurement": "overweight (body weight)", "setting": "[7]; [10]", "value": "reduced by CBDA-ME in both doses; also recorded: significantly reduced; also recorded: effectively reduced"},
      {"measurement": "insulin sensitivity (ipITT)", "setting": "[7]; HFD, 40 mg/kg", "value": "slightly improved"},
      {"measurement": "obesity-induced glucose intolerance (ipGTT)", "setting": "[7]; HFD, 20 or 40 mg/kg", "value": "found effective in Magel2^null mice in both doses tested"},
      {"measurement": "fasting blood glucose levels", "setting": "[7]; HFD, chronic treatment", "value": "reduced"},
      {"measurement": "carbohydrate oxidation", "setting": "[7]; HFD, indirect calorimetry", "value": "downregulating"},
      {"measurement": "fat oxidation", "setting": "[7]; HFD, indirect calorimetry", "value": "further upregulating"}
    ]},
    {"molecule": "C=C(C)[C@@H]1CCC(C)=C[C@H]1c1c(O)cc(CCCCC)c(C(=O)O)c1O", "note": "[CBDA, cannabidiolic acid]", "values": [
      {"measurement": "stability (decarboxylation into CBD enhanced by heat)", "setting": "[8]", "value": "relative instability"}
    ]}
  ]
}
